Patent US4436733A, “4"- And 3-ester derivatives of DMT and DMOT” (Eli Lilly and Company, priority 1982, dated 1984)
Like-named read-outs stand apart in the source and are kept apart here.

How the values were obtained:
[1] = system: Staphylococcus aureus V41; assay: standard agar-dilution assay, MIC; type: cell-based; settings: Staphylococcus aureus V41, penicillin resistant strain
Method: (§1) The MIC's in Table III were determined by standard agar-dilutionassays. The MIC's in Table IV were obtained using a conventional broth-dilution microtiter test.
^b Penicillinresistant strain

[2] = system: Streptococcus pneumoniae Park I; assay: standard agar-dilution assay, MIC; type: cell-based
Method: as §1

[3] = system: Staphylococcus epidermidis EPI1; assay: standard agar-dilution assay, MIC; type: cell-based
Method: as §1

[4] = system: Streptococcus Group D X66; assay: standard agar-dilution assay, MIC; type: cell-based
Method: as §1

[5] = system: Staphylococcus epidermidis EPI2; assay: standard agar-dilution assay, MIC; type: cell-based
Method: as §1

[6] = system: Streptococcus pyogenes C203; assay: standard agar-dilution assay, MIC; type: cell-based
Method: as §1

[7] = system: Staphylococcus aureus S13E; assay: standard agar-dilution assay, MIC; type: cell-based
Method: as §1

Streptococcus Group 9960 = assay: standard agar-dilution assay, MIC; type: cell-based
Method: as §1

[8] = system: Staphylococcus aureus X1.1; assay: standard agar-dilution assay, MIC; type: cell-based
Method: as §1

[9] = system: Haemophilus influenzae R252; assay: standard agar-dilution assay, MIC; type: cell-based; settings: Haemophilus influenzae R252, ampicillin resistant strain
Method: as §1
^e Ampicillinresistant strain

[10] = system: Pasteurella multocida 60A; assay: conventional broth-dilution microtiter test, MIC; type: cell-based; settings: avian isolate
Method: as §1

Mycoplasma hyorhinis = assay: conventional broth-dilution microtiter test, MIC; type: cell-based
Method: as §1

[11] = system: Pasteurella multocida 17E; assay: conventional broth-dilution microtiter test, MIC; type: cell-based; settings: bovine isolate
Method: as §1

Streptococcus sp. 80 = assay: conventional broth-dilution microtiter test, MIC; type: cell-based
Method: as §1

Mycoplasma synoviae = assay: conventional broth-dilution microtiter test, MIC; type: cell-based
Method: as §1

Staphylococcus aureus = assay: conventional broth-dilution microtiter test, MIC; type: cell-based
Method: as §1

Mycoplasma gallisepticum = assay: conventional broth-dilution microtiter test, MIC; type: cell-based
Method: as §1

[12] = system: Haemophilus influenzae Holt; assay: standard agar-dilution assay, MIC; type: cell-based; settings: ampicillin sensitive strain
Method: as §1
^d Ampicillinsensitive strain

[13] = system: Staphylococcus aureus X400; assay: standard agar-dilution assay, MIC; type: cell-based; settings: Staphylococcus aureus X400, methicillin resistant strain
Method: as §1
^c Methicillinresistant-strain

[14] = system: Streptococcus pyogenes C203; assay: experimental bacterial infection in mice, ED50; type: in vivo; settings: doses given 1 and 5 hours postinfection, read-out: ED50 (effective dose to protect 50% of the test animals)
Method: The ester derivatives of this invention have shown in vivo antimicrobial activity against experimental bacterial infections caused by gram-positivebacteria. When two doses of test compound were administered to mice with experimental infections, the activity observed was measured as an ED50 value [effective dose in mg/kg to protect 50% of the test animals: see Warren Wick, et al., J. Bacteriol. 81, 233-235 (1961)].
^a mg/kg × 2; doses given 1 and 5 hours postinfection

Structure (SMILES) | MIC (minimal inhibitory concentration) [1] | MIC (minimal inhibitory concentration) [2] | MIC (minimal inhibitory concentration) [3] | MIC (minimal inhibitory concentration) [4] | MIC (minimal inhibitory concentration) [5] | MIC (minimal inhibitory concentration) [6] | MIC (minimal inhibitory concentration) [7] | MIC (minimal inhibitory concentration) (Streptococcus Group 9960) | MIC (minimal inhibitory concentration) [8] | MIC (minimal inhibitory concentration) [9] | MIC (minimal inhibitory concentration) [10] | MIC (minimal inhibitory concentration) (Mycoplasma hyorhinis) | MIC (minimal inhibitory concentration) [11] | MIC (minimal inhibitory concentration) (Streptococcus sp. 80) | MIC (minimal inhibitory concentration) (Mycoplasma synoviae) | MIC (minimal inhibitory concentration) (Staphylococcus aureus) | MIC (minimal inhibitory concentration) (Mycoplasma gallisepticum) | MIC (minimal inhibitory concentration) [12] | MIC (minimal inhibitory concentration) [13] | ED50 ([14]; C203, mice, oral) [mg/kg] | other results
CCC1OC(=O)CC(O)C(C)C(OC2OC(C)C(OC3CC(C)(O)C(OC(C)=O)C(C)O3)C(N(C)C)C2OC(C)=O)C(CC=O)CC(C)C(=O)C=CC(C)=CC1COC(C)=O (stereo not shown) [Compound 1, 2',4",23-Tri-O-Acetyl-DMT] | 0.5 | 0.125 | 1 | 1 | 2 | 0.5 | 1 | 1 | 1 | 16 | 25 | 1.56 | 12.5 | 0.78 | 0.78 | 3.12 | 0.39 | 16 | 2 | 179 | –
CCC1OC(=O)CC(O)C(C)C(OC2OC(C)C(OC3CC(C)(O)C(OC(C)=O)C(C)O3)C(N(C)C)C2O)C(CC=O)CC(C)C(=O)C=CC(C)=CC1COC(C)=O (stereo not shown) [Compound 2, 23,4"-Di-O-Acetyl-DMT] | 0.25 | 0.125 | 1 | 0.5 | 1 | 0.25 | 0.5 | 0.5 | 0.5 | 16 | 12.5 | 0.78 | 6.25 | 0.39 | 0.39 | 0.78 | 0.097 | 16 | 1 | 117 | –
CCC(=O)OC1CC(=O)OC(CC)C(COC(=O)C(Cl)(Cl)Cl)C=C(C)C=CC(=O)C(C)CC(CC=O)C(OC2OC(C)C(OC3CC(C)(O)C(OC(=O)CC)C(C)O3)C(N(C)C)C2OC(C)=O)C1C (stereo not shown) [Compound 15, 2'-O-Acetyl-3,4"-Di-O-Propionyl-23-O-Trichloroacetyl-DMT] | 1 | 0.06 | 0.5 | 2 | 1 | 0.5 | 0.5 | 1 | 0.5 | 32 | 50 | 3.12 | 50 | 1.56 | 0.39 | 1.56 | 0.39 | 64 | 1 | – | –
CCC(=O)OC1CC(=O)OC(CC)C(CO)C=C(C)C=CC(=O)C(C)CC(CC=O)C(OC2OC(C)C(OC3CC(C)(O)C(OC(=O)CC)C(C)O3)C(N(C)C)C2O)C1C (stereo not shown) [Compound 17, 3,4"-Di-O-Propionyl-DMT] | 1 | 0.06 | 0.5 | 1 | 1 | 0.25 | 0.5 | 1 | 0.5 | 8 | 50 | 3.12 | 25 | 0.78 | 0.195 | 1.56 | 0.097 | 16 | 1 | – | –
CCC1OC(=O)CC(O)C(C)C(OC2OC(C)C(OC3CC(C)(O)C(OC(=O)CC(C)C)C(C)O3)C(N(C)C)C2O)C(CC=O)CC(C)C(=O)C=CC(C)=CC1C (stereo not shown) [Compound 19, 4"-O-Isovaleryl-DMOT] | 1 | 0.03 | 1 | 1 | 1 | 0.25 | 1 | 1 | 1 | 8 | 12.5 | 0.39 | 6.25 | 0.195 | 0.39 | 3.12 | 0.195 | 8 | 1 | – | –
CCC(=O)OC1C(C)OC(OC2C(C)OC(OC3C(CC=O)CC(C)C(=O)C=CC(C)=CC(C)C(CC)OC(=O)CC(O)C3C)C(O)C2N(C)C)CC1(C)O (stereo not shown) [Compound 24, 4"-O-Propionyl-DMOT] | 1 | 0.125 | 0.5 | 1 | 1 | 0.5 | 0.5 | 0.5 | 0.5 | 8 | 12.5 | 3.12 | 6.25 | 0.39 | 0.78 | 0.78 | 0.097 | 8 | 0.5 | 71 | ED50 ([14]; C203, sc, mice, subcutaneous): 22 mg/kg
CCC(=O)OC1CC(=O)OC(CC)C(C)C=C(C)C=CC(=O)C(C)CC(CC=O)C(OC2OC(C)C(OC3CC(C)(O)C(OC(=O)CC)C(C)O3)C(N(C)C)C2O)C1C (stereo not shown) [Compound 25, 3,4"-Di-O-propionyl-DMOT] | 1 | 0.25 | 1 | 1 | 2 | 0.5 | 0.5 | 1 | 0.5 | 16 | 50 | 1.56 | 25 | 1.56 | 0.39 | 1.56 | 0.195 | 32 | 1 | 36 | ED50 ([14]; C203, sc, mice, subcutaneous): > 30 mg/kg
